“And” between values parts separate entries of the source, which are not always exact repeats. Equal entries are not always repeated.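 Following 48 hours of exposure in 96-well plates, responses at five concentrations were used to interpolate endpoints linearly. GI50 is the concentration that inhibits growth by half. Definition used: TGI = concentration required for complete inhibition of growth.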
Assays:
Test in all cases: NCI tumour cell line growth inhibition, 48 h
UACC-62 melanoma = tested on: UACC-62 melanoma
HT29 colon = tested on: HT29 colon
SF-539 CNS = tested on: SF-539 CNS
KM12 colon = tested on: KM12 colon
NCI-H460 lung = tested on: NCI-H460 lung
NCI/ADR-RES ovarian = tested on: NCI/ADR-RES ovarian
NCI-H226 lung = tested on: NCI-H226 lung
UO-31 renal = tested on: UO-31 renal
SR leukemia = tested on: SR leukemia
RXF 393 renal = tested on: RXF 393 renal

Row | SMILES | GI50 (UACC-62 melanoma) | TGI (UACC-62 melanoma) | GI50 (HT29 colon) | TGI (HT29 colon) | GI50 (SF-539 CNS) | TGI (SF-539 CNS) | GI50 (KM12 colon) | TGI (KM12 colon) | GI50 (NCI-H460 lung) | TGI (NCI-H460 lung) | GI50 (NCI/ADR-RES ovarian) | TGI (NCI/ADR-RES ovarian) | GI50 (NCI-H226 lung) | TGI (NCI-H226 lung) | GI50 (UO-31 renal) | TGI (UO-31 renal) | TGI (SR leukemia) | TGI (RXF 393 renal) | GI50 (RXF 393 renal)
1 | Cc1cc(C)nc(SC2=C(Nc3ccc(C)c(Cl)c3)C(=O)N(Cc3ccccc3)C2=O)n1 | > 160 µM | > 160 µM | > 160 µM | > 160 µM | > 160 µM | > 160 µM | > 160 µM | > 160 µM | > 160 µM | > 160 µM | > 160 µM | > 160 µM | > 160 µM | > 160 µM | > 160 µM | > 160 µM | – | – | –
2 | O=S(Nc1ccccc1)c1ccc(N2CCOCC2)cc1 (stereo not drawn) | – | 99.3 µM | – | > 100 µM | – | > 100 µM | – | > 100 µM | – | > 100 µM | – | > 100 µM | – | > 100 µM | – | 42.7 µM | > 100 µM | – | –
3 | COC(=O)C1CCC(=S)N1C(=O)c1ccccc1 (stereo not drawn) | – | > 100 µM | – | > 100 µM | – | – | – | > 100 µM | – | > 100 µM | – | > 100 µM | – | – | – | > 100 µM | – | > 100 µM | –
4 | NC(=O)NNc1nc(-c2ccccc2)cs1 | – | > 100 µM | – | > 100 µM | – | – | – | > 100 µM | – | > 100 µM | – | > 100 µM | – | > 100 µM | – | > 100 µM | > 100 µM | > 100 µM | –
5 | COc1ccc(N2C(=O)CC(=O)N(C(=O)COc3ccc(OCC(=O)N4C(=O)CC(=O)N(c5ccc(OC)cc5)C4=S)cc3)C2=S)cc1 | – | > 100 µM | – | > 100 µM | – | – | – | 32.6 µM | – | > 100 µM | – | > 100 µM | – | > 100 µM | – | > 100 µM | – | 77.3 µM | –
6 | CC(C)CNc1nc2ncnc(N)c2[nH]1 | – | > 100 µM | – | > 100 µM | – | > 100 µM | – | > 100 µM | – | > 100 µM | – | > 100 µM | – | > 100 µM | – | > 100 µM | – | > 100 µM | –
7 | ClCCCc1ccccc1C1=NCCc2ccccc21 | – | > 100 µM | – | > 100 µM | – | > 100 µM | – | > 100 µM | – | > 100 µM | – | > 100 µM | – | > 100 µM | – | > 100 µM | – | > 100 µM | –
8 | CC(=O)Oc1cc2c(cc1OC(C)=O)OCC(c1ccc(C)cc1)C2 (stereo not drawn) | – | 21.3 µM | – | 73.6 µM | – | 32 µM | – | 58.6 µM | – | 39.1 µM | – | 58.3 µM | – | 62.2 µM | – | 38.3 µM | – | 34.6 µM | –
9 | CC(=O)OCC1OC(SC2=N/C(=C\c3ccc(Br)s3)C(=O)N2CN2CCOCC2)C(OC(C)=O)C(OC(C)=O)C1OC(C)=O (stereo not drawn) | – | 32.1 µM | – | 34.2 µM | – | – | – | 35.3 µM | – | 38.6 µM | – | 44 µM | – | 32.5 µM | – | 29.4 µM | 34.8 µM | – | –
10 | O=C(NCCCCCCCCCCCCNC(=O)Nc1cccc2ccccc12)Nc1cccc2ccccc12 | – | 26.7 µM | – | 40.8 µM | – | 27 µM | – | 33.6 µM | – | 29.4 µM | – | 60.6 µM | – | – | – | 33.9 µM | 31.7 µM | 30.6 µM | –
11 | CCOP(=O)(/C=C\n1cc(C)c(=O)[nH]c1=O)OCC | – | > 100 µM | – | > 100 µM | – | > 100 µM | – | > 100 µM | – | > 100 µM | – | > 100 µM | – | > 100 µM | – | – | – | > 100 µM | –
12 | CCOC(=O)c1nc2ccc(C(F)(F)F)cc2nc1Oc1cc(OC)c(OC)c(OC)c1 | – | > 100 µM | – | > 100 µM | – | > 100 µM | – | > 100 µM | – | > 100 µM | – | > 100 µM | – | 81.9 µM | – | > 100 µM | – | > 100 µM | –
13 | CCOc1ccc(N/C(=C(/C(Cl)=C(/Cl)N(CC)CC)[N+](=O)[O-])n2nnc3ccccc32)cc1 | – | 28.8 µM | – | 63.8 µM | – | 47.4 µM | – | 26.3 µM | – | > 100 µM | – | 53.9 µM | – | > 100 µM | – | 45.2 µM | – | 29.2 µM | –
14 | O=C1CCCCC/C1=C\c1ccc([N+](=O)[O-])cc1 | – | > 100 µM | – | 77.7 µM | – | 62.5 µM | – | 37.6 µM | – | 39.4 µM | – | > 100 µM | – | – | – | 79.7 µM | 92.9 µM | > 100 µM | –
15 | COC(=O)c1cc(=O)[nH]c(=O)[nH]1 | – | > 100 µM | – | > 100 µM | – | – | – | – | – | > 100 µM | – | > 100 µM | – | > 100 µM | – | > 100 µM | > 100 µM | > 100 µM | –
16 | [Cl][Sn]([c]1ccccc1)([c]1ccccc1)[c]1ccccc1 | – | – | – | – | 0.25 µM and 0.109 µM and 0.0284 µM | 0.642 µM and 0.244 µM and 0.0847 µM | – | – | – | – | – | – | 0.194 µM and 0.271 µM and 0.278 µM | 0.423 µM and 0.484 µM and 0.433 µM | 0.183 µM and 0.0863 µM and 0.0343 µM | 0.366 µM and 0.209 µM and 0.127 µM | 0.86 µM and 0.552 µM and 0.112 µM | 0.324 µM and 0.0434 µM | 0.161 µM and 0.0196 µM
17 | C=C(C(N)=O)c1ccc([N+](=O)[O-])o1 | – | 21.4 µM | – | 30.6 µM | – | 27.2 µM | – | 34.8 µM | – | 59 µM | – | > 100 µM | – | 49.6 µM | – | – | 36.9 µM | 9.64 µM | –
18 | C/C=C/c1cc(=O)c([C@@H]2OC(=O)c3cc(OC)cc(OC)c32)co1 | – | > 100 µM | – | > 100 µM | – | > 100 µM | – | > 100 µM | – | > 100 µM | – | – | – | > 100 µM | – | > 100 µM | > 100 µM | > 100 µM | –
19 | NC(=O)c1cccc([N+](=O)[O-])c1 | – | > 100 µM | – | > 100 µM | – | > 100 µM | – | > 100 µM | – | > 100 µM | – | – | – | > 100 µM | – | > 100 µM | – | – | –
20 | CCN(CC)N1C(=O)[N+](CC)(CC)N=C1[O-] | – | > 100 µM | – | > 100 µM | – | > 100 µM | – | > 100 µM | – | > 100 µM | – | > 100 µM | – | > 100 µM | – | > 100 µM | > 100 µM | – | –
21 | COc1cc([C@@H]2c3cc4c(cc3[C@@H](c3c(O)cc(O)c5c3O[C@H](c3ccc(O)c(O)c3)[C@@H](O)C5)[C@H]3COC(=O)[C@H]23)OCO4)cc(OC)c1OC | – | 3.13 µM | – | 63.9 µM | – | > 100 µM | – | 3.33 µM | – | 3.72 µM | – | > 100 µM | – | – | – | – | – | 3.28 µM | –
22 | CN(C)C(=O)OC1C(=O)N(C)c2ccc(Cl)cc2C2(c3ccccc3)N1C2(Cl)Cl (stereo not drawn) | – | > 100 µM | – | > 100 µM | – | – | – | > 100 µM | – | > 100 µM | – | – | – | > 100 µM | – | > 100 µM | > 100 µM | > 100 µM | –
23 | CCCC(=O)NC(Nc1ccc(S(=O)(=O)Nc2cc(C)on2)cc1)(C(=O)OCC)C(F)(F)F (stereo not drawn) | – | > 100 µM | – | > 100 µM | – | > 100 µM | – | > 100 µM | – | – | – | > 100 µM | – | > 100 µM | – | > 100 µM | > 100 µM | > 100 µM | –

Reference: PubChem BioAssay (NCI)
